# Patent US20230233569A1 (Revolution Medicines, Inc., priority 2020, published 2023)
# How the values were obtained:
# Assay in all cases: Disruption of BRAF RBD interaction with Ras (FRET / MOA assay, with Cyclophilin A)
# Format in all cases: biochemical
# [1] = biological target: KRAS G12C (Homo sapiens, UniProt P01116+P62937, G12C); conditions: KRAS G12C; read-out: KRAS G12C FRET data IC50
# In short: (§1)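 Here, compound titrations (ten points, factor 3, from 30 μM final) act on nucleotide-bound K-Ras and Cyclophilin A, and ternary complex formation disrupts the RAF RBD interaction.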
# [2] = biological target: KRAS G12D (Homo sapiens, UniProt P01116+P62937, G12D); conditions: read-out: KRAS G12D FRET data, IC50
# Chain of KRAS G12D (P01116 1-169 isoform P01116-2 G12D limits assumed): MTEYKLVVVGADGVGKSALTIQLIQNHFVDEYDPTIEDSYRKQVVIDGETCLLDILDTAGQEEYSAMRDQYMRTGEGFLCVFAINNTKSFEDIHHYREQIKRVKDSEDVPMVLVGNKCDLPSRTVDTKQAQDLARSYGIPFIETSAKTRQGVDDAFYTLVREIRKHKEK
# Chain of KRAS G12D (P62937 whole entry): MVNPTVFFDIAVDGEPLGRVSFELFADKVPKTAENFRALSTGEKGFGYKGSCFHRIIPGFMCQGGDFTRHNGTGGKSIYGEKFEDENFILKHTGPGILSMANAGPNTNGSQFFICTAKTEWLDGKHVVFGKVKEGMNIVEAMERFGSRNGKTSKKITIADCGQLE
# In short: as §1
# [3] = biological target: KRAS G12S (Homo sapiens, UniProt P01116+P62937, G12S); conditions: read-out: KRAS G12S FRET data, IC50
# Chain of KRAS G12S (P01116 1-169 isoform P01116-2 G12S limits assumed): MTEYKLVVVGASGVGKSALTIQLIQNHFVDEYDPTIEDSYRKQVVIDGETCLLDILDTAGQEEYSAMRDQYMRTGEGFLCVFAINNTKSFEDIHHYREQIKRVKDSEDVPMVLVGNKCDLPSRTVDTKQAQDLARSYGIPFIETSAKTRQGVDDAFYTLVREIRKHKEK
# Chain of KRAS G12S (P62937 whole entry): as the sequence (P62937 whole entry) above
# In short: as §1
# [4] = biological target: KRAS G12V (Homo sapiens, UniProt P01116+P62937, G12V); conditions: KRAS G12V; read-out: KRAS G12V FRET data IC50
# Chain of KRAS G12V (P01116 1-169 isoform P01116-2 G12V limits assumed): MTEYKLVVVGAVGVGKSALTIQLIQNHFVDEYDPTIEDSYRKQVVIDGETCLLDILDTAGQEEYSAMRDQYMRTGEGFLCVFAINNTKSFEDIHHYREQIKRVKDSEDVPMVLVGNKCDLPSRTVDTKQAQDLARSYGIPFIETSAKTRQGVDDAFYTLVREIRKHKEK
# Chain of KRAS G12V (P62937 whole entry): as the sequence (P62937 whole entry) above
# In short: as §1
# [5] = biological target: KRAS G13C (Homo sapiens, UniProt P01116+P62937, G13C); conditions: KRAS G13C; read-out: KRAS G13C FRET data IC50
# Chain of KRAS G13C (P01116 1-169 isoform P01116-2 G13C): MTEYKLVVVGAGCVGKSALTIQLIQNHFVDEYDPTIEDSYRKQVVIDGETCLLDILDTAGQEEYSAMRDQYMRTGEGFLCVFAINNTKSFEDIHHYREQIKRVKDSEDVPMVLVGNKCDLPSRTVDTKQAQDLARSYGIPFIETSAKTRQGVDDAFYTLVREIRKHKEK
# Chain of KRAS G13C (P62937 whole entry): as the sequence (P62937 whole entry) above
# In short: as §1
# [6] = biological target: KRAS G13D (Homo sapiens, UniProt P01116+P62937, G13D); conditions: KRAS G13D; read-out: KRAS G13D FRET data IC50
# Chain of KRAS G13D (P01116 1-169 isoform P01116-2 G13D limits assumed): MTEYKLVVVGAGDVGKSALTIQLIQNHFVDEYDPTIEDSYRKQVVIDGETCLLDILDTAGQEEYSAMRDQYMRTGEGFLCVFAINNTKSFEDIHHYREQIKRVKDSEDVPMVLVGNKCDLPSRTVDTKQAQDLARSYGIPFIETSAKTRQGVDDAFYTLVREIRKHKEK
# Chain of KRAS G13D (P62937 whole entry): as the sequence (P62937 whole entry) above
# In short: as §1
# [7] = biological target: KRAS WT (Homo sapiens, UniProt P01116+P62937); conditions: KRAS WT; read-out: KRAS WT FRET data IC50
# Chain of KRAS WT (P01116 1-169 isoform P01116-2 limits assumed): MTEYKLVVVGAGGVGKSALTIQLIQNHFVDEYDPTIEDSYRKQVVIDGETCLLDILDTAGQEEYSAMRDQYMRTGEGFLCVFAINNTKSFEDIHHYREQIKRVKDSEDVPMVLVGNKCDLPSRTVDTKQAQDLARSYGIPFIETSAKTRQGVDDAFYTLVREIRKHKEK
# Chain of KRAS WT (P62937 whole entry): as the sequence (P62937 whole entry) above
# In short: as §1
# [8] = biological target: NRAS G12C (Homo sapiens, UniProt P01111+P62937, G12C); conditions: NRAS G12C; read-out: NRAS G12C FRET data IC50
# Chain of NRAS G12C (P01111 whole entry G12C): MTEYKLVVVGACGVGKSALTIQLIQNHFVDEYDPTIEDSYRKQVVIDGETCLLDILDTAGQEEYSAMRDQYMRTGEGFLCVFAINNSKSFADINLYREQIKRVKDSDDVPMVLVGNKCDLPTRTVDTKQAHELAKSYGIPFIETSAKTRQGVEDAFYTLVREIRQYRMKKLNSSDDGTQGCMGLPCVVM
# Chain of NRAS G12C (P62937 whole entry): as the sequence (P62937 whole entry) above
# [9] = biological target: NRAS Q61K (Homo sapiens, UniProt P01111+P62937, Q61K); conditions: NRAS Q61K; read-out: NRAS Q61K FRET data IC50
# Chain of NRAS Q61K (P01111 whole entry Q61K): as the sequence (P01111 whole entry G12C) above, with C12G, Q61K counted along it
# Chain of NRAS Q61K (P62937 whole entry): as the sequence (P62937 whole entry) above
# In short: (§2)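 IC50 reflects compound-driven Ras:Cyclophilin A ternary complex displacing BRAF RBD, read as lowered TR-FRET ratio relative to DMSO after Eu anti-His (10 nM) and APC anti-GST (50 nM) detection for 1.5 h. Prior incubation 3 h, 25° C, with 12.5 nM GMPPNP-loaded Ras, 50 nM BRAF RBD, 25 μM Cyclophilin A; top compound 30 μM.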
# [10] = biological target: NRAS Q61R (Homo sapiens, UniProt P01111+P62937, Q61R); conditions: NRAS Q61R; read-out: NRAS Q61R FRET data IC50
# Chain of NRAS Q61R (P01111 whole entry Q61R): as the sequence (P01111 whole entry G12C) above, with C12G, Q61R counted along it
# Chain of NRAS Q61R (P62937 whole entry): as the sequence (P62937 whole entry) above
# In short: as §2
# Chain of KRAS G12C (P01116 1-169 isoform P01116-2 G12C): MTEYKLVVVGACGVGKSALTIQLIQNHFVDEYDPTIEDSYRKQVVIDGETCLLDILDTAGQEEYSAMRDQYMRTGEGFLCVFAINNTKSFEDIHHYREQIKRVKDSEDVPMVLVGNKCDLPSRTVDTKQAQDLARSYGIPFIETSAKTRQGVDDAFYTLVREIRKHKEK
# Chain of KRAS G12C (P62937 whole entry): as the sequence (P62937 whole entry) above
Compound,IC50 [1] [nM],IC50 [2] [nM],IC50 [3] [nM],IC50 [4] [nM],IC50 [5] [nM],IC50 [6] [nM],IC50 [7] [nM],IC50 [8] [nM],IC50 [9] [nM],IC50 [10] [nM]
C=CC(=O)N1CCO[C@H]2CCN(C(=O)N(C)[C@H](C(=O)N[C@H]3Cc4nc(cs4)-c4ccc5c(c4)c(c(-c4cccnc4[C@H](C)OC)n5CC)CC(C)(C)COC(=O)C4CCCN(N4)C3=O)C(C)C)C[C@@H]21 (stereo partly shown) [Example A609],< 10,100 to 1000,10 to 100,10 to 100,10 to 100,100 to 1000,10 to 100,< 10,10 to 100,10 to 100
C=CC(=O)N1CCO[C@H]2CN(C(=O)N(C)[C@H](C(=O)N[C@H]3CN4CCC=C(C4)c4ccc5c(c4)c(c(-c4cccnc4[C@H](C)OC)n5CC)CC(C)(C)COC(=O)[C@@H]4CCCN(N4)C3=O)C(C)C)C[C@H]21 [Example A552],10 to 100,1000 to 10000,1000 to 10000,1000 to 10000,10 to 100,1000 to 10000,100 to 1000,10 to 100,1000 to 10000,1000 to 10000
C=CC(=O)N1CCC2(C1)CN(C(=O)N(C)[C@H](C(=O)N[C@H]1Cc3nc(cs3)-c3ccc4c(c3)c(c(-c3cccnc3[C@H](C)OC)n4CC(F)(F)F)CC(C)(C)COC(=O)C3CCCN(N3)C1=O)C(C)C)C2 (stereo partly shown) [Example A603],10 to 100,100 to 1000,100 to 1000,100 to 1000,10 to 100,100 to 1000,10 to 100,10 to 100,10 to 100,10 to 100
"C=CC(=O)N1CC[C@]2(C1)OCN(C(=O)N(C)[C@H](C(=O)N[C@H]1Cc3cccc(n3)-c3ccc4c(c3)c(c(-c3cccnc3[C@H](C)OC)n4CC)CC(C)(C)COC(=O)[C@@H]3CCCN(N3)C1=O)C(C)C)C2=O (atropisomer, axis not shown) [Example A652]",100 to 1000,> 10000,1000 to 10000,1000 to 10000,100 to 1000,1000 to 10000,1000 to 10000,100 to 1000,1000 to 10000,1000 to 10000
C=CC(=O)N1CCOC2(CCN(C(=O)N(C)[C@H](C(=O)N[C@H]3Cc4cc(CF)cc(c4)-c4ccc5c(c4)c(c(-c4cccnc4[C@H](C)OC)n5CC(F)(F)F)CC(C)(C)COC(=O)C4CCCN(N4)C3=O)C(C)C)CC2)C1 (stereo partly shown) [Example A605],100 to 1000,100 to 1000,100 to 1000,100 to 1000,10 to 100,100 to 1000,10 to 100,100 to 1000,100 to 1000,100 to 1000
C=CC(=O)N1CCOC2(CCN(C(=O)N(C)[C@H](C(=O)N[C@H]3CN4CCC=C(C4)c4ccc5c(c4)c(c(-c4cccnc4[C@H](C)OC)n5CC)CC(C)(C)COC(=O)[C@@H]4CCCN(N4)C3=O)C(C)C)CC2)C1 [Example A563],100 to 1000,> 10000,1000 to 10000,1000 to 10000,100 to 1000,1000 to 10000,1000 to 10000,100 to 1000,1000 to 10000,> 10000
"CCn1c(-c2cccnc2[C@H](C)OC)c2c3cc(ccc31)-c1csc(n1)C[C@H](NC(=O)[C@H](COC1CN(C(=O)C#CC(C)(C)N(C)C)C1)OC)C(=O)N1CCC[C@H](N1)C(=O)OCC(C)(C)C2 (atropisomer, axis not shown) [Example A705]",< 10,> 10000,1000 to 10000,1000 to 10000,1000 to 10000,> 10000,1000 to 10000,< 10,1000 to 10000,> 10000
